Assay results reported in patent US4503256A, “Phlorophenone derivatives, processes for preparing such compounds, uses and pharmaceutical compositions of phlorophenone compounds” (Noristan Limited, priority 1981, dated 1985).
Values after ≈ are worked out from the molar mass of the structure shown. Like-named read-outs stand apart in the source and are kept apart here.

Legend:
S. AUREUS = test: Minimum Inhibitory Concentration (MIC), broth dilution in Brain Heart Infusion broth; format: cell-based, Staphylococcus aureus; conditions: Staphylococcus aureus, read-out: MIC S. AUREUS
Description: (§1) For testing against the bacteria, concentrations of each of the compounds were prepared in Brain Heart Infusion broth (Oxoid CM225) in two-fold steps from 1000 μg/ml to 1 μg/ml. Solutions containing 1000 μg/ml were prepared by dissolving 20 mg of each compound in 5 ml of acetone and this was then made up to 20 ml with Brain Heart Infusion Broth. Serial two-fold dilutions were then prepared in the broth down to 1 μg/ml.
(§2) For testing against the bacteria each of the prepared test concentrations and acetone controls prepared in Brain Heart Infusion were dispensed in 2 ml amounts for each organism. A growth control of 2 ml of Brain Heart Infusion was included in each series.
(§3) To each of the prepared sets of concentrations of each compound were added 0.1 ml aliquots of the organism suspensions prepared as described previously. All the bottles were incubated at 37° C. for 48 hours in the case of the bacteria and from 5 to 15 days for the fungi (until growth controls had grown in each case).
(§4) After incubation the broths were examined for evidence of growth. The lowest concentration of the test compound which prevented growth was recorded as the Minimum Inhibitory Concentration (MIC).

St. PYOGENES = test: as above; format: cell-based; conditions: Streptococcus pyogenes, 37° C., 48 hours
Description: as §1, §2, §3, §4

Tr. MENTAGROPHYTES = test: Minimum Inhibitory Concentration (MIC), dilution in Sabouraud liquid medium; format: cell-based; conditions: Trichophyton mentagrophytes, 37° C., 5 to 15 days
Description: (§5) For testing against the fungi, concentrations of each of the compounds were prepared in Sabouraud liquid medium in two-fold steps from 100 μg/ml to 0.1 μg/ml. 500 μg/ml solutions were prepared by dissolving 10 mg in 5 ml of acetone, made up to 20 ml with Sabouraud liquid medium. 4 ml of the 500 μg/ml concentration was then made up to 20 ml with Sabouraud liquid medium to give a concentration of 100 μg/ml. Serial two-fold dilutions were prepared from this in the same medium down to 0.1 μg/ml.
(§6) For the fungi the same procedure was followed using the concentrations made up in Sabouraud liquid medium. The Nystatin concentrations were also dispensed in 2 ml amounts for each organism. Growth controls of Sabouraud liquid medium were included in each series.
as §3, §4

C. ALBICANS = test: as above; format: cell-based; conditions: Candida albicans, 37° C., 5 to 15 days
Description: as §5, §6, §3, §4

Sp. SCHENKII = test: as above; format: cell-based; conditions: 37° C., 5 to 15 days
Description: as §5, §6, §3, §4

Tr. RUBRUM = test: as above; format: cell-based; conditions: Trichophyton rubrum, 37° C., 5 to 15 days
Description: as §5, §6, §3, §4

Mic. CANIS = test: as above; format: cell-based; conditions: Microsporum canis, 37° C., 5 to 15 days
Description: as §5, §6, §3, §4

[1] = Acute oral toxicity in CD-1 mice; format: in vivo; conditions: mouse, in vivo, male and female CD-1 mice, dose levels 1000, 464, 215 and 100 mg/kg, 7 days observation
Description: Male and female CD-1 mice were fasted for 18 hours prior to the experiment, but water was available ad libitum except during the observation period. The test compounds were prepared in 1% tragacanth and were administered orally to groups of two male and two female mice.
All compounds were tested at dose levels of 1000, 464, 215 and 100 mg/kg. Immediately after dosing, the mice were replaced in their "home" cage and were observed daily for 7 days post dose and any mortalities recorded.
The acute toxicities, as determined by the above procedure, of a number of representative compounds are given in the accompanying table.

[2] = 37° C., 48 hours, Brain Heart Infusion broth

| Structure (SMILES) | MIC (S. AUREUS; [2]) [µg/mL] | MIC (St. PYOGENES) [µg/mL] | MIC (Tr. MENTAGROPHYTES) [µg/mL] | MIC (C. ALBICANS) [µg/mL] | MIC (Sp. SCHENKII) [µg/mL] | MIC (Tr. RUBRUM) [µg/mL] | MIC (Mic. CANIS) [µg/mL] | LD50 at 168 h [1] [mg/kg] | MIC (S. AUREUS; 48 h) [µg/mL] |
| --- | --- | --- | --- | --- | --- | --- | --- | --- | --- |
| C=CCc1c(O)cc(O)c(C(=O)CCC(C)C)c1O [Compound 19] | 16 (≈ 60.5 µM) | 4 (≈ 15.1 µM) | 13 (≈ 49.2 µM) | 25 (≈ 94.6 µM) | 13 (≈ 49.2 µM) | 6 (≈ 22.7 µM) | 6 (≈ 22.7 µM) | > 1000 |  |
| CCCC(=O)c1c(O)c2c(c(C(=O)CCC)c1O)OC(C)(C)CC2 [Compound 36, 5,7-Dihydroxy-6,8-dibutyryl-2,2-dimethylchroman] | 250 (≈ 748 µM) | 64 (≈ 191 µM) | 100 (≈ 299 µM) | 100 (≈ 299 µM) | 100 (≈ 299 µM) | 100 (≈ 299 µM) | 100 (≈ 299 µM) | > 1000 |  |
| CCC(=O)c1c(O)cc(O)c(CC=C(C)C)c1O [Compound 2, 2-Propionyl-4-(3-methylbuten-2-yl)phloroglucinol] | 125 (≈ 499 µM) | 8 (≈ 32 µM) | 25 (≈ 99.9 µM) | 50 (≈ 200 µM) | 25 (≈ 99.9 µM) | 13 (≈ 51.9 µM) | 13 (≈ 51.9 µM) | > 1000 |  |
| CCCC(=O)c1c(O)cc(O)c(C(=O)CCC)c1O [Compound 1, 2,4-Dibutyrylphloroglucinol] | 2 (≈ 7.51 µM) | 1 (≈ 3.76 µM) | 6 (≈ 22.5 µM) | 13 (≈ 48.8 µM) | 6 (≈ 22.5 µM) | 6 (≈ 22.5 µM) | 3 (≈ 11.3 µM) | > 1000 |  |
| CCCCCCCCC(=O)c1c(O)cc(O)c2c1OC(C)(C)CC2 [Compound 32, 5,7-Dihydroxy-2,2-dimethyl-8-nonanoyl chroman] | 64 (≈ 191 µM) | < 1 | > 100 | 100 (≈ 299 µM) | 100 (≈ 299 µM) | > 100 | 100 (≈ 299 µM) | > 1000 |  |
| CCCCCCCCC(=O)c1c(O)cc(O)c(Cc2ccccc2)c1O [Compound 27, 2-Nonanoyl-4-benzylphloroglucinol] |  | 1 (≈ 2.81 µM) | 5 (≈ 14 µM) | 100 (≈ 281 µM) | 50 (≈ 140 µM) | > 100 | 50 (≈ 140 µM) | > 1000 | 2 (≈ 5.61 µM) |
| CCCCCCCCC(=O)c1c(O)cc2c(c1O)CCC(C)(C)O2 [Compound 34, 5,7-dihydroxy-2,2-dimethyl-6-nonanoyl chroman] | 500 (≈ 1490 µM) | 4 (≈ 12 µM) | > 100 | 100 (≈ 299 µM) | > 100 | 100 (≈ 299 µM) | > 100 | > 1000 |  |
| CCCCC(=O)c1c(O)cc(O)c(CC=C(C)C)c1O [Compound 4, 2-Valeryl-4-(3-methylbuten-2-yl)phloroglucinol] | 64 (≈ 230 µM) | 16 (≈ 57.5 µM) | 13 (≈ 46.7 µM) | 25 (≈ 89.8 µM) | 25 (≈ 89.8 µM) | 13 (≈ 46.7 µM) | 13 (≈ 46.7 µM) | > 1000 |  |
| C=CCc1c(O)cc(O)c(C(=O)CCCC)c1O [Compound 17] | 64 (≈ 256 µM) | 16 (≈ 63.9 µM) | 13 (≈ 51.9 µM) | 25 (≈ 99.9 µM) | 25 (≈ 99.9 µM) | 13 (≈ 51.9 µM) | 6 (≈ 24 µM) | > 1000 |  |
| CC(C)=CCc1c(O)cc(O)c(C(=O)Cc2ccccc2)c1O [Compound 6, 2Phenylacetyl-4-(3-methylbuten-2-yl)phloroglucinol] | 250 (≈ 800 µM) | 8 (≈ 25.6 µM) | 100 (≈ 320 µM) | > 100 | 50 (≈ 160 µM) | 25 (≈ 80 µM) | 50 (≈ 160 µM) | > 1000 |  |
| CCCC(=O)c1c(O)cc(O)c(Cc2ccccc2)c1O [Compound 24, 2-Butyryl-4-benzylphloroglucinol] | 16 (≈ 55.9 µM) | 8 (≈ 27.9 µM) | 13 (≈ 45.4 µM) | 25 (≈ 87.3 µM) | 25 (≈ 87.3 µM) | 6 (≈ 21 µM) | 13 (≈ 45.4 µM) | 1000 |  |
